Broadly, the Ki is the dissociation constant of the complex between target and ligand, obtained from inhibition or displacement. A low value points to tighter binding. Broadly, the half-life is the time in which the quantity being followed falls by half. By bioavailability is commonly meant the share of a dose that reaches the circulation, judged against a reference dose that is usually intravenous. The term clearance denotes the rate of elimination divided by the concentration. High values mean a high capacity for elimination, low ones a low capacity for elimination.

The values that follow come from ChEMBL document CHEMBL1149441, “Cyclopropylamino acid amide as a pharmacophoric replacement for 2,3-diaminopyridine. Application to the design of novel bradykinin B1 receptor antagonists” (J Med Chem, 2006).

A value given as a limit tells only on which side of the number the result lay.

In one data set the target is T1, B2 bradykinin receptor (Homo sapiens, UniProt P30411).
T1 sequence (P30411 whole entry): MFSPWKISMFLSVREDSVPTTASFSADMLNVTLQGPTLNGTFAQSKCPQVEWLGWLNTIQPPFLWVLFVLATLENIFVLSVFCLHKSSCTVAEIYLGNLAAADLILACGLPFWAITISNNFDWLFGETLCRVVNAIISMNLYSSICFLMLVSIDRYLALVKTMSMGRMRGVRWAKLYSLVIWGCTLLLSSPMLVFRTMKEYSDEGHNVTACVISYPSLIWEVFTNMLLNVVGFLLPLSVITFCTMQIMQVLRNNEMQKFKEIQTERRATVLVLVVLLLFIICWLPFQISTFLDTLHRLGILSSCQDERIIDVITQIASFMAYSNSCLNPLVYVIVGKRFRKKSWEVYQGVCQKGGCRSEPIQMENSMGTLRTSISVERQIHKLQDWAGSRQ
The experiment in a line: Binding affinity to bradykinin B2 receptor.

The nature of data set [1]: Half life in iv dosed rat. Type of data set: ADME, organism-based. To be noted: in vivo.
The target in a further data set is T2, B1 bradykinin receptor (Homo sapiens, UniProt P46663).
T2 sequence (P46663 whole entry): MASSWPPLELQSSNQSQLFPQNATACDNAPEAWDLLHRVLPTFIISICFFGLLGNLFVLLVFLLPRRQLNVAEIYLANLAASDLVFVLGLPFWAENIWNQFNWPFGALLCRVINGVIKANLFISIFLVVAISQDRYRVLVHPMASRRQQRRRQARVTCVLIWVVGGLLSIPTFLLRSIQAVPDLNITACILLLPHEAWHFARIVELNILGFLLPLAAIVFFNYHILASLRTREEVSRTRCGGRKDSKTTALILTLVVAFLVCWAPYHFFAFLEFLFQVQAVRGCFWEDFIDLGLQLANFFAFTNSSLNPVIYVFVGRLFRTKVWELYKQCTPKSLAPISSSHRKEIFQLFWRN
The experiment in a line: Binding affinity to human bradykinin B1 receptor expressed in CHO cells. In kind it is cell-based.

Data set [2] is described as follows: Oral bioavailability in rat. In kind it is ADME, organism-based. Conditions: in vivo.
Data set [3] can be described thus: Clearance in iv dosed rat. Type of data set: ADME, organism-based. Conditions: in vivo.

The molecule `COC(=O)c1ccccc1-c1ccc(CNc2ncccc2NC(=O)CC(F)(F)F)cc1` registered a Ki on B2 bradykinin receptor above 10 µM. Further, the half-life in data set [1] is 0.15 h.

Take `COC(=O)c1ccccc1-c1ccc(CNC(=O)C2(NC(=O)c3cncc(C(F)(F)F)c3)CC2)cc1`: the Ki was 0.0018 µM on B1 bradykinin receptor and above 10 µM at B2 bradykinin receptor.

Regarding `COC(=O)c1ccccc1-c1ccc(CNC(=O)C2(NC(=O)CC(F)(F)F)CCCCC2)cc1`, the Ki at B1 bradykinin receptor was 0.752 µM; on B2 bradykinin receptor, above 10 µM. The bioavailability in data set [2] was determined as 25%. In addition, in data set [1], the half-life is 12 h. The same molecule returned a clearance in data set [3] of 2.6 mL/min/kg.

`COC(=O)c1ccccc1-c1ccc(CNC(=O)C2(NC(=O)CC(F)(F)F)CCCC2)cc1`: the inhibition constant Ki at B1 bradykinin receptor is 0.462 µM; at B2 bradykinin receptor it was above 10 µM.

In the case of `COC(=O)c1ccccc1-c1ccc(CNC(=O)[C@@H](C)NC(=O)CC(F)(F)F)cc1`, the inhibition constant Ki on B1 bradykinin receptor was 1.58 µM; at B2 bradykinin receptor, above 10 µM.

Take `COC(=O)c1ccccc1-c1ccc(CNC(=O)C(C)(C)NC(=O)CC(F)(F)F)cc1`: at B2 bradykinin receptor, the inhibition constant Ki is above 10 µM. Moreover, in data set [2], the bioavailability amounted to 35%. Further, the half-life in data set [1] is 6.6 h. This molecule gave a clearance in data set [3] of 4.2 mL/min/kg.

As for `COC(=O)c1ccccc1-c1ccc(CNC(=O)C2(NC(=O)CC(F)(F)F)CC2)cc1`, the Ki at B2 bradykinin receptor is above 10 µM. In addition, the bioavailability in data set [2] was 26%. Also, the half-life in data set [1] is 9.5 h. The clearance in data set [3] amounted to 9.3 mL/min/kg.

For the molecule `COC(=O)c1ccccc1-c1ccc(CNC(=O)C2(NC(=O)c3cncnc3)CC2)cc1`, the inhibition constant (Ki) on B1 bradykinin receptor is 0.0255 µM; on B2 bradykinin receptor it was above 10 µM.

For `COC(=O)c1ccccc1-c1ccc(CNC(=O)CNC(=O)CC(F)(F)F)cc1`, the Ki on B1 bradykinin receptor is 52 µM; on B2 bradykinin receptor, above 10 µM.

As to `COC(=O)c1ccccc1-c1ccc(CNC(=O)C2(NC(=O)CC(F)(F)F)CCC2)cc1`, the Ki on B1 bradykinin receptor is 0.119 µM; on B2 bradykinin receptor, above 10 µM.

On to `COC(=O)c1ccccc1-c1ccc(CNC(=O)[C@H](C)NC(=O)CC(F)(F)F)cc1`, for which the results for the Ki on B1 bradykinin receptor and on B2 bradykinin receptor were above 50 µM and above 10 µM, respectively.
